ChEMBL document CHEMBL1275492, “In vitro activity of ceftobiprole against pathogens from two phase 3 clinical trials of complicated skin and skin structure infections” (2008)
Values after ≈ are worked out from the molar mass of the structure shown.

Experiments:
Format in all cases: functional
Bacteroides fragilis = experiment: Antibacterial activity against Bacteroides fragilis obtained from complicated skin and skin structure infections by agar dilution method
Prevotella = experiment: Antibacterial activity against Prevotella spp. obtained from complicated skin and skin structure infections by agar dilution method
Veillonella = experiment: Antibacterial activity against Veillonella spp. obtained from complicated skin and skin structure infections by agar dilution method
Pseudomonas aeruginosa = experiment: Antibacterial activity against Pseudomonas aeruginosa obtained from complicated skin and skin structure infections by agar dilution method
Acinetobacter baumannii = experiment: Antibacterial activity against Acinetobacter baumannii obtained from complicated skin and skin structure infections by agar dilution method
Pseudomonas fluorescens = experiment: Antibacterial activity against Pseudomonas fluorescens obtained from complicated skin and skin structure infections by agar dilution method
[1] = system: Stenotrophomonas maltophilia; experiment: Antibacterial activity against Stenotrophomonas maltophilia obtained from complicated skin and skin structure infections by agar dilution method
Klebsiella aerogenes = experiment: Antibacterial activity against Enterobacter aerogenes obtained from complicated skin and skin structure infections by agar dilution method
Klebsiella oxytoca = experiment: Antibacterial activity against Klebsiella oxytoca obtained from complicated skin and skin structure infections by agar dilution method
Staphylococcus aureus [2] = experiment: Antibacterial activity against Staphylococcus aureus obtained from complicated skin and skin structure infections by agar dilution method
Staphylococcus aureus [3] = experiment: Antibacterial activity against methicillin resistant Staphylococcus aureus obtained from complicated skin and skin structure infections by agar dilution method
Staphylococcus aureus [4] = experiment: Antibacterial activity against methicillin susceptible Staphylococcus aureus obtained from complicated skin and skin structure infections by agar dilution method
[5] = system: Staphylococcus epidermidis; experiment: Antibacterial activity against coagulase-negative Staphylococcus epidermidis obtained from complicated skin and skin structure infections by agar dilution method
[6] = system: Staphylococcus haemolyticus; experiment: Antibacterial activity against coagulase-negative Staphylococcus haemolyticus obtained from complicated skin and skin structure infections by agar dilution method
[7] = system: Staphylococcus lugdunensis; experiment: Antibacterial activity against coagulase-negative Staphylococcus lugdunensis obtained from complicated skin and skin structure infections by agar dilution method
Staphylococcus hominis = experiment: Antibacterial activity against coagulase-negative Staphylococcus hominis obtained from complicated skin and skin structure infections by agar dilution method
Staphylococcus capitis = experiment: Antibacterial activity against coagulase-negative Staphylococcus capitis obtained from complicated skin and skin structure infections by agar dilution method
[8] = system: Staphylococcus saprophyticus; experiment: Antibacterial activity against coagulase-negative Staphylococcus saprophyticus obtained from complicated skin and skin structure infections by agar dilution method
Staphylococcus cohnii = experiment: Antibacterial activity against coagulase-negative Staphylococcus cohnii obtained from complicated skin and skin structure infections by agar dilution method
Mammaliicoccus sciuri = experiment: Antibacterial activity against coagulase-negative Staphylococcus sciuri obtained from complicated skin and skin structure infections by agar dilution method
Staphylococcus warneri = experiment: Antibacterial activity against coagulase-negative Staphylococcus warneri obtained from complicated skin and skin structure infections by agar dilution method
[9] = system: Staphylococcus lugdunensis; experiment: Antibacterial activity against methicillin-resistant, oxacillin-susceptible, coagulase-negative, mecA-positive Staphylococcus lugdunensis obtained from complicated skin and skin structure infections by agar dilution method
Staphylococcus = experiment: Antibacterial activity against methicillin-susceptible, coagulase-negative Staphylococcus obtained from complicated skin and skin structure infections by agar dilution method
Enterococcus faecalis = experiment: Antibacterial activity against Enterococcus faecalis obtained from complicated skin and skin structure infections by agar dilution method
Enterococcus faecium = experiment: Antibacterial activity against Enterococcus faecium obtained from complicated skin and skin structure infections by agar dilution method
Streptococcus agalactiae = experiment: Antibacterial activity against Streptococcus agalactiae obtained from complicated skin and skin structure infections by agar dilution method
Streptococcus pyogenes = experiment: Antibacterial activity against Streptococcus pyogenes obtained from complicated skin and skin structure infections by agar dilution method
[10] = Antibacterial activity against Streptococcus sp. 'group C' obtained from complicated skin and skin structure infections by agar dilution method
[11] = Antibacterial activity against Streptococcus sp. 'group G' obtained from complicated skin and skin structure infections by agar dilution method
[12] = system: Streptococcus constellatus; experiment: Antibacterial activity against Streptococcus constellatus obtained from complicated skin and skin structure infections by agar dilution method
Streptococcus mitis = experiment: Antibacterial activity against Streptococcus mitis obtained from complicated skin and skin structure infections by agar dilution method
[13] = system: Staphylococcus intermedius; experiment: Antibacterial activity against Staphylococcus intermedius obtained from complicated skin and skin structure infections by agar dilution method
Aerococcus viridans = experiment: Antibacterial activity against Aerococcus viridans obtained from complicated skin and skin structure infections by agar dilution method
Bacillus = experiment: Antibacterial activity against Bacillus spp. obtained from complicated skin and skin structure infections by agar dilution method
Gemella morbillorum = experiment: Antibacterial activity against Gemella morbillorum obtained from complicated skin and skin structure infections […]
Gemella = experiment: Antibacterial activity against Gemella spp. obtained from complicated skin and skin structure infections by agar dilution method
Lactococcus lactis = experiment: Antibacterial activity against Lactococcus lactis obtained from complicated skin and skin structure infections by agar dilution method
Micrococcus = experiment: Antibacterial activity against Micrococcus spp. obtained from complicated skin and skin structure infections by agar dilution method
Citrobacter braakii = experiment: Antibacterial activity against Citrobacter braakii obtained from complicated skin and skin structure infections by agar dilution method
Citrobacter freundii = experiment: Antibacterial activity against Citrobacter freundii obtained from complicated skin and skin structure infections by agar dilution method
Enterobacter amnigenus = experiment: Antibacterial activity against Enterobacter amnigenus obtained from complicated skin and skin structure infections by agar dilution method; conditions: Lelliottia amnigena
Enterobacter cloacae = experiment: Antibacterial activity against Enterobacter cloacae obtained from complicated skin and skin structure infections by agar dilution method
Escherichia coli = experiment: Antibacterial activity against Escherichia coli obtained from complicated skin and skin structure infections by agar dilution method
Klebsiella pneumoniae = experiment: Antibacterial activity against Klebsiella pneumoniae obtained from complicated skin and skin structure infections by agar dilution method
Morganella morganii = experiment: Antibacterial activity against Morganella morganii obtained from complicated skin and skin structure infections by agar dilution method
Proteus mirabilis = experiment: Antibacterial activity against Proteus mirabilis obtained from complicated skin and skin structure infections by agar dilution method
Proteus penneri = experiment: Antibacterial activity against Proteus penneri obtained from complicated skin and skin structure infections by agar dilution method
Proteus vulgaris = experiment: Antibacterial activity against Proteus vulgaris obtained from complicated skin and skin structure infections by agar dilution method
Providencia stuartii = experiment: Antibacterial activity against Providencia stuartii obtained from complicated skin and skin structure infections by agar dilution method
Salmonella = experiment: Antibacterial activity against Salmonella spp. obtained from complicated skin and skin structure infections by agar dilution method
Serratia marcescens = experiment: Antibacterial activity against Serratia marcescens obtained from complicated skin and skin structure infections by agar dilution method

CO[C@@]1(NC(=O)Cc2cccs2)C(=O)N2C(C(=O)O)=C(COC(N)=O)CS[C@@H]21 [CEFOXITIN]
MIC (Bacteroides fragilis): ≤ 1 µg/mL
MIC (Prevotella): ≤ 1 µg/mL
MIC (Veillonella): ≤ 1 µg/mL

Cc1ncc([N+](=O)[O-])n1CCO [METRONIDAZOLE]
MIC (Bacteroides fragilis): 0.5 µg/mL (≈ 2.92 µM)
MIC (Prevotella): 0.5 µg/mL (≈ 2.92 µM)
MIC (Veillonella): 0.5 µg/mL (≈ 2.92 µM)

C[C@H]1COc2c(N3CCN(C)CC3)c(F)cc3c(=O)c(C(=O)O)cn1c23.C[C@H]1COc2c(N3CCN(C)CC3)c(F)cc3c(=O)c(C(=O)O)cn1c23.O [LEVOFLOXACIN]
MIC50 (Pseudomonas aeruginosa): 4 µg/mL
MIC90 (Pseudomonas aeruginosa): 64 µg/mL
MIC50 (Acinetobacter baumannii): 4 µg/mL
MIC90 (Acinetobacter baumannii): 8 µg/mL
MIC50 (Pseudomonas fluorescens): 4 µg/mL
MIC90 (Pseudomonas fluorescens): 8 µg/mL
MIC50 [1]: 4 µg/mL
MIC90 [1]: 8 µg/mL
MIC50 (Klebsiella aerogenes): ≤ 0.06 µg/mL
MIC90 (Klebsiella aerogenes): 8 µg/mL
MIC50 (Klebsiella oxytoca): ≤ 0.06 µg/mL
MIC90 (Klebsiella oxytoca): 8 µg/mL
MIC50 (Staphylococcus aureus [2]): 0.12 µg/mL
MIC90 (Staphylococcus aureus [2]): 4 µg/mL
MIC50 (Staphylococcus aureus [3]): 4 µg/mL
MIC90 (Staphylococcus aureus [3]): 8 µg/mL
MIC50 (Staphylococcus aureus [4]): 0.12 µg/mL
MIC90 (Staphylococcus aureus [4]): 0.5 µg/mL
MIC50 [5]: 0.12 µg/mL
MIC90 [5]: 8 µg/mL
MIC50 [6]: 0.12 µg/mL
MIC90 [6]: 8 µg/mL
MIC50 [7]: 0.12 µg/mL
MIC90 [7]: 8 µg/mL
MIC50 (Staphylococcus hominis): 0.12 µg/mL
MIC90 (Staphylococcus hominis): 8 µg/mL
MIC50 (Staphylococcus capitis): 0.12 µg/mL
MIC90 (Staphylococcus capitis): 8 µg/mL
MIC50 [8]: 0.12 µg/mL
MIC90 [8]: 8 µg/mL
MIC50 (Staphylococcus cohnii): 0.12 µg/mL
MIC90 (Staphylococcus cohnii): 8 µg/mL
MIC50 (Mammaliicoccus sciuri): 0.12 µg/mL
MIC90 (Mammaliicoccus sciuri): 8 µg/mL
MIC50 (Staphylococcus warneri): 0.12 µg/mL
MIC90 (Staphylococcus warneri): 8 µg/mL
MIC50 [9]: 0.25 µg/mL
MIC90 [9]: > 8 µg/mL
MIC50 (Staphylococcus): 0.12 µg/mL
MIC90 (Staphylococcus): 0.25 µg/mL
MIC50 (Enterococcus faecalis): 1 µg/mL
MIC90 (Enterococcus faecalis): 2 µg/mL
MIC50 (Enterococcus faecium): 4 µg/mL
MIC (Streptococcus agalactiae): 0.5 µg/mL
MIC50 (Streptococcus agalactiae): 0.5 µg/mL
MIC90 (Streptococcus agalactiae): 1 µg/mL
MIC50 (Streptococcus pyogenes): 0.5 µg/mL
MIC90 (Streptococcus pyogenes): 0.5 µg/mL
MIC50 [10]: 0.5 µg/mL
MIC90 [10]: 0.5 µg/mL
MIC50 [11]: 0.5 µg/mL
MIC90 [11]: 0.5 µg/mL
MIC [12]: 0.25 µg/mL
MIC50 [12]: 0.25 µg/mL
MIC90 [12]: 1 µg/mL
MIC (Streptococcus mitis): ≤ 0.03 µg/mL
MIC50 (Streptococcus mitis): ≤ 0.03 µg/mL
MIC90 (Streptococcus mitis): 0.12 µg/mL
MIC [13]: ≤ 0.03 µg/mL
MIC50 [13]: ≤ 0.03 µg/mL
MIC90 [13]: 0.12 µg/mL
MIC50 (Aerococcus viridans): 0.5 µg/mL
MIC90 (Aerococcus viridans): 4 µg/mL
MIC50 (Bacillus): 0.5 µg/mL
MIC90 (Bacillus): 4 µg/mL
MIC50 (Gemella morbillorum): 0.5 µg/mL
MIC90 (Gemella morbillorum): 4 µg/mL
MIC50 (Gemella): 0.5 µg/mL
MIC90 (Gemella): 4 µg/mL
MIC50 (Lactococcus lactis): 0.5 µg/mL
MIC90 (Lactococcus lactis): 4 µg/mL
MIC50 (Micrococcus): 0.5 µg/mL
MIC90 (Micrococcus): 4 µg/mL
MIC50 (Citrobacter braakii): ≤ 0.06 µg/mL
MIC90 (Citrobacter braakii): 8 µg/mL
MIC50 (Citrobacter freundii): ≤ 0.06 µg/mL
MIC90 (Citrobacter freundii): 8 µg/mL
MIC50 (Enterobacter amnigenus): ≤ 0.06 µg/mL
MIC90 (Enterobacter amnigenus): 8 µg/mL
MIC50 (Enterobacter cloacae): 0.06 µg/mL
MIC90 (Enterobacter cloacae): 4 µg/mL
MIC50 (Escherichia coli): 0.03 µg/mL
MIC90 (Escherichia coli): 1 µg/mL
MIC50 (Klebsiella pneumoniae): 0.06 µg/mL
MIC90 (Klebsiella pneumoniae): 4 µg/mL
MIC50 (Morganella morganii): 1 µg/mL
MIC90 (Morganella morganii): 64 µg/mL
MIC50 (Proteus mirabilis): ≤ 0.06 µg/mL
MIC90 (Proteus mirabilis): > 8 µg/mL
MIC50 (Proteus penneri): ≤ 0.06 µg/mL
MIC90 (Proteus penneri): 8 µg/mL
MIC50 (Proteus vulgaris): ≤ 0.06 µg/mL
MIC90 (Proteus vulgaris): 8 µg/mL
MIC50 (Providencia stuartii): ≤ 0.06 µg/mL
MIC90 (Providencia stuartii): 8 µg/mL
MIC50 (Salmonella): ≤ 0.06 µg/mL
MIC90 (Salmonella): 8 µg/mL
MIC50 (Serratia marcescens): ≤ 0.06 µg/mL
MIC90 (Serratia marcescens): 8 µg/mL
